Measured values: patent US20250375417A1, “OREXIN RECEPTOR 2 (OX2R) AGONIST FOR USE IN NARCOLEPSY TYPE 1 (NT1)” (TAKEDA PHARMACEUTICAL COMPANY LIMITED, priority 2024, published 2025)
Marks after values point to notes of the source that are not given here.

Columns and labels:
[1] = system: participants with NT1; test: Nocturnal polysomnography (PSG) sleep architecture, Phase 2 NT1 trial; assay type: in vivo, human
Excerpt: Polysomnography (PSG) was collected at baseline and after 27 and 54 days of treatment. Sleep was manually scored following AASM guidelines; sleep metrics were extracted then computed by whole night and by quarter-night. Continuous accelerometry (Empatica EmbracePlus watch) allowed assessment of sleep in a naturalistic manner at home. Daily sleep diaries were used to capture subjective reports. Mixed effects models were fit with treatment, quarter-night, visit, and their interactions as fixed effects and random intercepts per subject. A reference PSG dataset (Vilela M, et al. J Sleep Res 2024; e14216) from CHU Montpellier (49 clinical controls and 114 patients with NT1, all drug-free) was analyzed to establish DNS characteristics of NT1.

[2] = system: participants with NT2; test: MWT sleep onset latency, Phase 2 NT2 trial (Example 2); assay type: in vivo, human; details: not statistically significant (p>0.4)
Method: In some aspects of the methods described herein, the subject experiences a higher mean sleep latency (also referred to as sleep onset latency or SOL) from the Maintenance of Wakefulness Test (MWT) after a treatment period compared to an untreated subject. The MWT is a validated, objective measure that evaluates a person's ability to remain awake under soporific conditions for a defined period of time. Because there is no biological measure of wakefulness, wakefulness is measured indirectly by the inability or delayed tendency to fall asleep. This tendency to fall asleep is measured via electroencephalography-derived sleep latency in the MWT. One MWT, that includes four 40-minute wake trials, is done on each day specified in the Schedule of Activities of the trial. Sleep latency in each wake trial is recorded. Participants are required to stay awake in between the 4 MWT wake trials.
During each MWT wake trial, participants are instructed to sit in a bed or reclining chair and remain awake for as long as possible in a dimly lit room. Wake trials are ended after 40 minutes if no sleep occurs. If no sleep has been observed according to these rules, then the latency is defined as 40 minutes.
Randomization was stratified by region. Starting on the morning of Day 1, the study drug was administered at approximately the same time each day for 8 weeks. […]

CCS(=O)(=O)N[C@@H]1[C@H](Cc2cccc(-c3cc(F)cc(F)c3)c2F)N(C(=O)C(C)(C)O)CC1(F)F [Compound A, N-{(2S,3R)-4,4-difluoro-1-(2-hydroxy-2-methylpropanoyl)-2-[(2,3′,5′-trifluoro[1,1′-biphenyl]-3-yl)methyl]pyrrolidin-3-yl}ethanesulfonamide]
PSG % of time in N1, change from baseline to week 8 ([1]; 7 mg QD): 2.90* %
PSG % of time in N2, change from baseline to week 8 ([1]; 7 mg QD): −6.10* %
PSG % of time in N3, change from baseline to week 8 ([1]; 7 mg QD): −0.12%
PSG % of time in REM, change from baseline to week 8 ([1]; 7 mg QD): −4.48* %
PSG % of time in WASO, change from baseline to week 8 ([1]; 7 mg QD): 7.81* %
PSG No. of awakenings, change from baseline to week 8 ([1]; 7 mg QD): 6.3*
PSG SOL, change from baseline to week 8 ([1]; 7 mg QD): -6.8 min
PSG TST, change from baseline to week 8 ([1]; 7 mg QD): −42.7* min
PSG WASO, change from baseline to week 8 ([1]; 7 mg QD): 38.1* min
PSG % of time in N1, change from baseline to week 8 ([1]; 0.5/0.5 mg): 1.13%
PSG % of time in N2, change from baseline to week 8 ([1]; 0.5/0.5 mg): −1.75%
PSG % of time in N3, change from baseline to week 8 ([1]; 0.5/0.5 mg): −0.27%
PSG % of time in REM, change from baseline to week 8 ([1]; 0.5/0.5 mg): 1.28%
PSG % of time in WASO, change from baseline to week 8 ([1]; 0.5/0.5 mg): −0.39%
PSG No. of awakenings, change from baseline to week 8 ([1]; 0.5/0.5 mg): −2.3
PSG SOL, change from baseline to week 8 ([1]; 0.5/0.5 mg): 0.4 min
PSG TST, change from baseline to week 8 ([1]; 0.5/0.5 mg): -5.4 min
PSG WASO, change from baseline to week 8 ([1]; 0.5/0.5 mg): -3.6 min
PSG % of time in N1, change from baseline to week 8 ([1]; 2/2 mg): 1.76%
PSG % of time in N2, change from baseline to week 8 ([1]; 2/2 mg): 0.65%
PSG % of time in N3, change from baseline to week 8 ([1]; 2/2 mg): 0.45%
PSG % of time in REM, change from baseline to week 8 ([1]; 2/2 mg): −2.43%
PSG % of time in WASO, change from baseline to week 8 ([1]; 2/2 mg): −0.43%
PSG No. of awakenings, change from baseline to week 8 ([1]; 2/2 mg): 2.5
PSG SOL, change from baseline to week 8 ([1]; 2/2 mg): -1.9 min
PSG TST, change from baseline to week 8 ([1]; 2/2 mg): 8.4 min
PSG WASO, change from baseline to week 8 ([1]; 2/2 mg): -2.4 min
PSG % of time in N1, change from baseline to week 8 ([1]; 2/5 mg): 3.55* %
PSG % of time in N2, change from baseline to week 8 ([1]; 2/5 mg): −1.69%
PSG % of time in N3, change from baseline to week 8 ([1]; 2/5 mg): −0.44%
PSG % of time in REM, change from baseline to week 8 ([1]; 2/5 mg): −4.08* %
PSG % of time in WASO, change from baseline to week 8 ([1]; 2/5 mg): 2.57%
PSG No. of awakenings, change from baseline to week 8 ([1]; 2/5 mg): 3.2
PSG SOL, change from baseline to week 8 ([1]; 2/5 mg): -3.4 min
PSG TST, change from baseline to week 8 ([1]; 2/5 mg): -19.9 min
PSG WASO, change from baseline to week 8 ([1]; 2/5 mg): 11.0 min
REM sleep architecture per quarter night (in-clinic PSG) ([1]; week 8 (FIG. 6A)): shifted REM sleep from early to later in the night without reducing the total REM
Rate of transitions between REM and wake/N1 ([1]; week 8, except in the 0.5 mg/0.5 mg cohort (FIG. 6B)): reduced the rate of sleep/wake transitions early in the night
Estimated mean change from baseline to Week 8 in SOL-MWT versus placebo ([2]; 2 mg/2 mg): -0.24 min
Estimated mean change from baseline to Week 8 in SOL-MWT versus placebo ([2]; 2 mg/5 mg): 2.4 min
